Measured values reported in patent US20220175762A1, “IMMUNE MODULATORY COMPOSITIONS AND METHODS FOR TREATING CANCERS” (Birdie Biopharmaceuticals, Inc., priority 2019, published 2022).

Legend:
[1] = tested on: C26 colon tumor cell line; test: In vivo tumor cell killing, C26 syngeneic tumor model, cyclophosphamide with TLRL combination therapy; set-up: dose or concentration left out as unconfirmed; conditions: C26 cells s.c. in BALB/c mice; cyclophosphamide i.p., TLRL (resiquimod) i.v., or both; once weekly for three times; FIG. 1B
Procedure: FIG. 1A-D depicts evaluation of the antitumor effects of Cyclophosphamide/TLRL combination therapy in syngeneic tumor model. FIG. 1A: Scheme of therapy protocol developed to treat C26 tumor. The treatment was initiated at d10 with tumor size 100-120 mm^3 following tumor challenges, and was administered weekly for 3 cycles starting at day 10. FIG. 1B: Antitumor effects of systemic TLRL (Resiquimod) in C26 tumor model. 4×10^5 cells were inoculated subcutaneously in Balb/c mice. After the tumor was allowed to grow for 10 days, groups of 8 mice were treated with Vehicle or with intraperitoneally administration of 1 mg of Cyclophosphamide, or with intravenously administered 1.6 g of TLRL or combination therapy at the dose shown. The compound was administered weekly for three cycles. The data are represented by the median tumor volume measurements of each group. Data for each group of 8 mice are expressed as means±SD. Statistical comparisons were performed using Student's t-Test. […]
All BALB/c mice were maintained under specific pathogen free conditions and used between 6-16 weeks of age in accordance to the animal experimental guidelines set by the Institutional Animal Care and Use Committee. […] Tumor volumes were measured along three orthogonal axes (x, y, and z) and calculated as tumor volume=(xyz)/2. […]

[2] = tested on: IFNα inducible genes MX2, ISG15 and IRF7; test: IFNα inducible gene expression (quantitative RT-PCR) in draining lymph nodes and spleen of treated mice; format: in vivo; conditions: draining LNs and spleen of C26 tumor-bearing Balb/c mice, second day of second weekly treatment, FIG. 3
Procedure: Expression of IFNα inducible genes in dLN and spleen of treated mouse. RNA was isolated from draining lymph nodes and spleen after second treatment with TLRL or cyclophosphamide or combination therapy and relative expression of IFNα inducible genes MX2, ISG15 and IRF7 were determined by quantitative RT-PCR. Values indicate the mRNA expression of indicated IFNα inducible genes relative to housekeeping gene Actin.
Balb/c mice, 6-8 weeks of age, female, purchased from Vital River Beijing, C26 cells were injected s.c. in the back of anesthetized mice. Treatment was started when tumor volumes reached 100-120 mm^3, i.p. injections of cyclophosphamide or i.v. injections of […] of TLRL (resiquimod) or a combination of the treatments were given once weekly. On second day of second treatment, (that is, on the eighth day) draining LNs and spleen from treated mice were dissected and RNA was extracted using TRIzol reagent. After cDNA was reversed-transcribed, the quantitative Real-Time PCR was performed and IFNα inducible gene expression data were normalized relative to geometric mean of […] housekeeping genes (Actin): […]

[3] = tested on: CD45^+ cell infiltration in C26 tumor; test: Immunohistochemistry of CD45 positive cells in tumors of treated mice; format: in vivo; set-up: dose or concentration left out as unconfirmed; conditions: C26 tumor in Balb/c mice, tumor taken on second day of second weekly treatment, cyclophosphamide i.p., TLRL i.v., FIG. 2
Procedure: Histological characterization of CD45 positive cells were performed in treated mice. Tumor samples were obtained from mice treated with TLRL, cyclophosphamide or TLRL/cyclophosphamide. Histological sections were counterstained with hematoxylin and eosin (H&E).
Balb/c mice, 6-8 weeks of age, female, purchased from Vital River Beijing, C26 cells were injected s.c. in the back of anesthetized mice. Treatment was started when tumor volumes reached 100-120 mm^3, i.p. injections of cyclophosphamide or i.v. injections of 1.6 g of TLRL (resiquimod) or combination were given once weekly. On second day of second treatment, tissue specimens of the tumor from treated mice were surgically removed, fixed in 4% buffered formaldehyde for 24 h, processed into paraffin, then sectioned at 5 μm. For immunohistochemistry, tissue sections were deparaffinised followed by antigen-retrieval in Tris-EDTA buffer (0.01 M pH 9.0) at high temperature (water bath, 30 minutes at 98° C.). […] After washing with PBS three times, secondary antibody goat antibody rat HPR was applied. Standard DAB (3,3′-diaminobenzidine) kit was used for visualization and section was counterstained with H&E used according to the protocols recommended by the manufacturer.

SMILES	effect in reducing tumor volume [1]	IFNα inducible gene expression (MX2, ISG15, IRF7) relative to Actin [2]	IFNα inducible gene expression (MX2, ISG15, IRF7) relative to Actin ([2]; listed as TLRL)	infiltration of CD45^+ cells in tumor microenvironment [3]	infiltration of CD45^+ cells in tumor microenvironment ([3]; listed as TLRL)
CCOCc1nc2c(N)nc3ccccc3c2n1CC(C)(C)O [TLRL (resiquimod), 4-amino-2-(ethoxymethyl)-a,a-di-methyl-1H-imidazo[4,5-c]quinoline-1-ethanol]	similar	Upregulating IFNα inducible gene clusters were observed	increased IFNα inducible gene expression	significant numbers of CD45^+ cell were infiltrated	increased infiltration of activated immune cells (CD45^+)
O=P1(N(CCCl)CCCl)NCCCO1 (stereo not drawn) [cyclophosphamide]	similar	–	–	–	–
